Source: ChEMBL document CHEMBL1149744, “Terpenoids and Alkaloids from Esenbeckia belizencis. Spontaneous Oxidation of Furoquinoline Alkaloids” (J Nat Prod, 1992)

Tested on: Artemia salina
Assay: Toxicity against Artemia salina
Type: organism-based
Details: in vivo

Row | SMILES | LC50
1 | COc1c2ccoc2nc2c(OC)c3c(cc12)OCO3 [FLINDERSIAMINE] | > 1000 ppm
2 | COc1cc2nc3occc3c(OC)c2cc1OC [KOKUSAGININE] | 367 ppm
